The text below walks through data of the supplement of paper PMC8988213.

The test system of assay [1] is ID211 patient-derived PDAC 2D line (post-FOLFIRINOX). Description: normalised area under dose-response curve (viability relative to DMSO, 7 doses up to 10 µM) (fraction (AUC)); higher = less sensitive (more viability retained). Conditions: 72 h; top dose: 10 µM. The method, boiled down:
(§1)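 2D PDAC cells grown out from patient-derived organoids were robotically seeded in 96-well plates at 1,500–3,000 cells/well and kept overnight at 37°C in 5% CO2. Compounds from a SelleckChem library were then applied for 72 h at seven concentrations, made as a 3-fold dilution series with 10 µM as the highest. CellTiter-Glo luminescence was measured 10 min later. Viability was normalised to control wells, and the GRmetrics R package was used to derive the area under the dose-response curve.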

For assay [2], the system named is ID188 patient-derived PDAC 2D line (pre-FOLFIRINOX). The description is as above. The following applies: 72 h; top dose: 10 µM. The method, boiled down:
as §1

Where a name gives a salt, the structure may show the parent alone.

`Cn1cc(C2=C(c3cn(CCCSC(=N)N)c4ccccc34)C(=O)NC2=O)c2ccccc21` [Bisindolylmaleimide IX (Ro 31-8220 Mesylate)]: the “normalised area under dose-response curve” value (“normalised area” for short) in assay [1] turned out to be 0.788; in assay [2], 0.942.

As for `O=P1(N(CCCl)CCCl)NCCCO1` (centres undefined) [Cyclophosphamide Monohydrate], the results for the “normalised area” value in assay [1] and in assay [2] were 0.899 and 0.927, respectively.

For the compound `N.N.[Cl][Pt][Cl]` [Cisplatin], the “normalised area” value in assay [1] was 0.86; in assay [2] it was 0.95.

For `Cc1ccccc1C(C(=O)NC1CCCCC1)N(C(=O)Cn1ccnc1C)c1cccc(F)c1` (centres undefined) [AGI-5198], the “normalised area” value in assay [1] was determined as 0.804; in assay [2], 0.972.

With `CC(C)(C)c1nc(-c2cccc(NS(=O)(=O)c3c(F)cccc3F)c2F)c(-c2ccnc(N)n2)s1`, the “normalised area” value in assay [1] is 0.932; in assay [2] it was 0.738.

For the compound `CNC(=O)c1nn(C)c2c1C(C)(C)Cc1cnc(Nc3ccc(N4CCN(C)CC4)cc3)nc1-2`, the “normalised area” value turned out to be 0.783 in assay [1] and 0.776 in assay [2].

`Cc1ccc(C(=O)N(CCCN)[C@@H](c2oc3cc(Cl)ccc3c(=O)c2Cc2ccccc2)C(C)C)cc1`: the “normalised area” value in assay [1] is 0.708; in assay [2], 0.51.

For the compound `c1ccc2c(CCNc3ccc(Nc4ccncc4)cc3)c[nH]c2c1`, the “normalised area” value in assay [1] turned out to be 0.796; in assay [2], 0.88.

As to `COc1nnc2ccc(N3CCC(c4ccc(OCCN5CCN(C)C(=O)[C@H]5C)cc4)CC3)nn12` [AZD5153], the “normalised area” value stood at 0.59 in assay [1] and 0.723 in assay [2].

In the case of `CCS(=O)(=O)Nc1ccc(Oc2ccc(F)cc2F)c(-c2cn(C)c(=O)c3[nH]ccc23)c1` [Mivebresib(ABBV-075)], the “normalised area” value in assay [1] was 0.538; in assay [2], 0.666.

Turning to `CC(C)(C)c1ccc(S(=O)(=O)NCc2ccc(C(=O)Nc3cccnc3)cc2)cc1` [STF-31], the results for the “normalised area” value in assay [1] and in assay [2] were 0.865 and 0.864, respectively.

For the compound `Cc1cc(C)nc(NS(=O)(=O)c2ccc(NC(=S)NC(=O)COc3ccc(Br)cc3Cl)cc2)n1` [ZCL278], the results for the “normalised area” value in assay [1] and in assay [2] were 0.777 and 0.928, respectively.

`O=C(O)C(=O)O.[NH-][C@@H]1CCCC[C@H]1[NH-].[Pt+2]` [Oxaliplatin]: the “normalised area” value amounted to 0.844 in assay [1] and 0.901 in assay [2].

With `O=C(NCC(=O)N1CCCC1)Nc1ccc2cnccc2c1` [SGC707], the “normalised area” value amounted to 0.863 in assay [1] and 0.955 in assay [2].

Consider `CC(C)(C)c1[nH]cnc1/C=c1\[nH]c(=O)/c(=C/c2ccccc2)[nH]c1=O` [Plinabulin (NPI-2358)], for which the “normalised area” value in assay [1] was 0.355; in assay [2] it was 0.588.

As for `Cc1cc(CS(=O)(=O)c2ccccc2)cc(OCc2ccc(CN3CCC[C@@H]3CO)cc2)c1` [PF-543], the “normalised area” value came to 0.903 in assay [1] and 0.924 in assay [2].

Take `CC(C)c1cc(C(=O)N2Cc3ccc(CN4CCN(C)CC4)cc3C2)c(O)cc1O`: the “normalised area” value in assay [1] amounted to 0.458; in assay [2], 0.665.

`Cc1cc(Nc2ncc(Cl)c(Nc3ccccc3S(=O)(=O)C(C)C)n2)c(OC(C)C)cc1C1CCNCC1` [Ceritinib (LDK378)]: the entries for the “normalised area” value in assay [1] and in assay [2] were 0.685 and 0.823, respectively.

Regarding `Cn1cnc2c(F)c(Nc3ccc(Br)cc3F)c(C(=O)NOCCO)cc21`, the “normalised area” value in assay [1] stood at 0.457; in assay [2] it was 0.732.

Regarding `Cc1ccc(NC(=O)c2ccc(CN3CC[C@H](N(C)C)C3)c(C(F)(F)F)c2)cc1Nc1nccc(-c2cncnc2)n1` [Bafetinib (INNO-406)], the figures for the “normalised area” value in assay [1] and in assay [2] were 0.841 and 0.906, respectively.

For `NC(=O)c1ncn([C@@H]2O[C@H](CO)[C@@H](O)[C@H]2O)c1N` [AICAR (Acadesine)], the “normalised area” value in assay [1] was 0.887; in assay [2] it was 0.934.

As for `C=CCn1c(=O)c2cnc(Nc3ccc(N4CCN(C)CC4)cc3)nc2n1-c1cccc(C(C)(C)O)n1` [Adavosertib(MK-1775)], the “normalised area” value was found to be 0.662 in assay [1] and 0.582 in assay [2].

Take `CC(C)Oc1ccc(-c2c[nH]cc2CN(C)CCN)cc1` [MS023]: the “normalised area” value in assay [1] stood at 0.634; in assay [2] it was 0.842.

On to `C=CC(=O)N1CC/C(=C\c2ccc(F)c([N+](=O)[O-])c2)C(=O)/C(=C/c2ccc(F)c([N+](=O)[O-])c2)C1` [VLX1570], for which the entries for the “normalised area” value in assay [1] and in assay [2] were 0.243 and 0.602, respectively.

Regarding `C[C@@H](NC(=O)c1ncnc(N)c1Cl)c1ncc(C(=O)Nc2cc(C(F)(F)F)c(Cl)cn2)s1` [MLN2480], the “normalised area” value worked out at 0.818 in assay [1] and 0.905 in assay [2].

Turning to `CC(C)CCn1c(CN2CCN(C(=O)C3CC3)CC2)nc2c1c(=O)n(C)c(=O)n2C` [NCT-501], the results for the “normalised area” value in assay [1] and in assay [2] were 0.822 and 0.965, respectively.

`COC(=O)c1ccc2c(c1)NC(=O)/C2=C(\Nc1ccc(N(C)C(=O)CN2CCN(C)CC2)cc1)c1ccccc1` [Nintedanib (BIBF 1120)]: the “normalised area” value stood at 0.86 in assay [1] and 0.915 in assay [2].
